target: T1, HDM2 (Homo sapiens, UniProt Q00987); experiment: HDM2 FRET assay (inhibition of binding of FITC labeled p53-pocket peptide to HDM2); conditions: Table 11; read-out: FRET IC50
T1 construct: Thioredoxin (N); made in house; host or cells: E. coli strain BL21(DE3)Rosetta
Summary of the method: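 Compounds were tested in 10-point serial dilution against 0.5 nM recombinant HDM2 binding 3 nM fluorescein-labeled p53-pocket peptide. Detection used 0.25 nM terbium cryptate anti-6xHis antibody in PBS buffer containing 0.01% BSA and 0.01% Tween-20.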

T1 sequence (Q00987 17-125): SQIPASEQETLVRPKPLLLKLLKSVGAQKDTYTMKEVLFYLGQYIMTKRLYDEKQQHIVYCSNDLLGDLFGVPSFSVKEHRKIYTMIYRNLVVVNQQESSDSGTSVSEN

Structure (SMILES) | IC50 [nM]
Cc1ccc(C2CCCCN2c2nc3nc(-c4noc(=O)[nH]4)nc(N[C@H](C)C4CCC4)c3n2C[C@H]2CC[C@H](C)CC2)o1 (stereo partly drawn) [Example 11.78, 3-(6-{[(1R)-1-cyclobutylethyl]amino}-7-[(trans-4-methylcyclohexyl)methyl]-8-[2-(5-methylfuran-2-yl)piperidin-1-yl]-7H-purin-2-yl)-1,2,4-oxadiazol-5(4H)-one] | 37.1
C[C@@H](Nc1nc(-c2noc(=O)[nH]2)nc2nc(N3CCS(=O)(=O)CC3)n(C[C@H]3CC[C@H](C)CC3)c12)C1CCC1 [Example 11.79, 3-(6-{[(1R)-1-cyclobutylethyl]amino}-8-(1,1-dioxidothiomorpholin-4-yl)-7-[(trans-4-methylcyclohexyl)methyl]-7H-purin-2-yl)-1,2,4-oxadiazol-5(2H)-one] | 33.3
C[C@@H](Nc1nc(-c2noc(=O)[nH]2)nc2nc(N3CCC(F)(F)CC3)n(C[C@H]3CC[C@H](C)CC3)c12)C1CCC1 [Example 11.80, 3-(6-{[(1R)-1-cyclobutylethyl]amino}-8-(4,4-difluoropiperidin-1-yl)-7-[(trans-4-methylcyclohexyl)methyl]-7H-purin-2-yl)-1,2,4-oxadiazol-5(2H)-one] | 25.9
C[C@H]1CC[C@H](Cn2c(N3CCOC[C@H]3c3ccccc3)nc3nc(-c4noc(=O)[nH]4)nc(N4CCCCC4C4CCC4)c32)CC1 (stereo partly drawn) [Example 11.81, 3-{6-(2-cyclobutylpiperidin-1-yl)-7-[(trans-4-methylcyclohexyl)methyl]-8-[(3R)-3-phenylmorpholin-4-yl]-7H -purin-2-yl}-1,2,4-oxadiazol-5(4H)-one] | 483
C[C@H]1CC[C@H](Cn2c(N3CCOC[C@H]3c3ccccc3)nc3nc(-c4noc(=O)[nH]4)nc(N4CCCCC4C4CCC4)c32)CC1 (stereo partly drawn) [Example 11.82, 3-{6-(2-cyclobutylpiperidin-1-yl)-7-[(trans-4-methylcyclohexyl)methyl]-8-[(3R)-3-phenylmorpholin-4-yl]-7H -purin-2-yl}-1,2,4-oxadiazol-5(4H)-one] | 6.45
CC(C)C[C@H]1CCCCN1c1nc2nc(-c3noc(=O)[nH]3)nc(N[C@H](C)C3CCC3)c2n1C[C@H]1CC[C@H](C)CC1 [Example 11.83, 3-(6-{[(1R)-1-cyclobutylethyl]amino}-7-[(trans-4-methylcyclohexyl)methyl]-8-[(2R)-2-(2-methylpropyl)piperidin-1-yl]-7H-purin-2-yl)-1,2,4-oxadiazol-5(4H)-one] | 11.5
CC(C)C[C@@H]1CCCCN1c1nc2nc(-c3noc(=O)[nH]3)nc(N[C@H](C)C3CCC3)c2n1C[C@H]1CC[C@H](C)CC1 [Example 11.84, 3-(6-{[(1R)-1-cyclobutylethyl]amino}-7-[(trans-4-methylcyclohexyl)methyl]-8-[(2S)-2-(2-methylpropyl)piperidin-1-yl]-7H-purin-2-yl)-1,2,4-oxadiazol-5(4H)-one] | 3.07
CC(Nc1nc2nc(-c3noc(=O)[nH]3)nc(N[C@H](C)C3CCC3)c2n1C[C@H]1CC[C@H](C)CC1)c1cncnc1 (stereo partly drawn) [Example 11.85, 3-(6-{[(1R)-1-cyclobutylethyl]amino}-7-[(trans-4-methylcyclohexyl)methyl]-8-[(1-pyrimidin-5-ylethyl)amino]-7H-purin-2-yl)-1,2,4-oxadiazol-5(2H)-one] | 4.97
Cc1nc(C(C)Nc2nc3nc(-c4noc(=O)[nH]4)nc(N[C@H](C)C4CCC4)c3n2C[C@H]2CC[C@H](C)CC2)cs1 (stereo partly drawn) [Example 11.86, 3-(6-{[(1R)-1-cyclobutylethyl]amino}-7-[(trans-4-methylcyclohexyl)methyl]-8-{[1-(2-methyl-1,3-thiazol-4-yl)ethyl]amino} -7H-purin-2-yl)-1,2,4-oxadiazol-5(2H)-one] | 3.39
CC(Nc1nc2nc(-c3noc(=O)[nH]3)nc(N[C@H](C)C3CCC3)c2n1C[C@H]1CC[C@H](C)CC1)c1ccno1 (stereo partly drawn) [Example 11.87, 3-(6-{[(1R)-1-cyclobutylethyl]amino}-8-[(1-isoxazol-5-ylethyl)amino]-7-[(trans-4-methylcyclohexyl)methyl]-7H-purin-2-yl)-1,2,4-oxadiazol-5(2H)-one] | 105
CC(Nc1nc2nc(-c3noc(=O)[nH]3)nc(N[C@H](C)C3CCC3)c2n1C[C@H]1CC[C@H](C)CC1)c1cscn1 (stereo partly drawn) [Example 11.88, 3-(6-{[(1R)-1-cyclobutylethyl]amino}-7-[(trans-4-methylcyclohexyl)methyl]-8-{[1-(1,3-thiazol-4-yl)ethyl]amino}-7H-purin-2-yl)-1,2,4-oxadiazol-5(2H)-one] | 3.83
CC(Nc1nc2nc(-c3noc(=O)[nH]3)nc(N[C@H](C)C3CCC3)c2n1C[C@H]1CC[C@H](C)CC1)c1ccncn1 (stereo partly drawn) [Example 11.89, 3-(6-{[(1R)-1-cyclobutylethyl]amino}-7-[(trans-4-methylcyclohexyl)methyl]-8-[(1-pyrimidin-4-ylethyl)amino]-7H-purin-2-yl)-1,2,4-oxadiazol-5(2H)-one] | 13.8
Cc1noc(C(C)Nc2nc3nc(-c4noc(=O)[nH]4)nc(N[C@H](C)C4CCC4)c3n2C[C@H]2CC[C@H](C)CC2)n1 (stereo partly drawn) [Example 11.90, 3-(6-{[(1R)-1-cyclobutylethyl]amino}-7-[(trans-4-methylcyclohexyl)methyl]-8-{[1-(3-methyl-1,2,4-oxadiazol-5-yl)ethyl]amino} -7H-purin-2-yl)-1,2,4-oxadiazol-5(2H)-one] | 4.04
CC(Nc1nc2nc(-c3noc(=O)[nH]3)nc(N[C@H](C)C3CCC3)c2n1C[C@H]1CC[C@H](C)CC1)c1cncnc1 (stereo partly drawn) [Example 11.92, 3-(6-{[(1R)-1-cyclobutylethyl]amino}-7-[(trans-4-methylcyclohexyl)methyl]-8-[(1-pyrimidin-5-ylethyl)amino]-7H-purin-2-yl)-1,2,4-oxadiazol-5(2H)-one] | 11.7
C[C@@H]1COCCN1c1nc2nc(-c3n[nH]c(=O)o3)nc(N[C@H](C)C3CCC3)c2n1C[C@H]1CC[C@H](C)CC1 [Example 11.97, 5-(6-{[(1R)-1-cyclobutylethyl]amino}-7-[(trans-4-methylcyclohexyl)methyl]-8-[(3R)-3-methylmorpholin-4-yl]-7H-purin-2-yl)-1,3,4-oxadiazol-2(3H)-one] | 1.94
C[C@@H](Nc1nc(-c2noc(=O)[nH]2)nc2nc(N3CCOCC3(C)C)n(C[C@H]3CC[C@H](C)CC3)c12)C1CCC1 [Example 11.98, 3-(6-{[(1R)-1-cyclobutylethyl]amino}-8-(3,3-dimethylmorpholin-4-yl)-7-[(trans-4-methylcyclohexyl)methyl]-7H-purin-2-yl)-1,2,4-oxadiazol-5(4H)-one] | 2.52
C[C@@H](Nc1nc(-c2noc(=O)[nH]2)nc2nc(N3CCOCC3c3ccc(Cl)cc3)n(C[C@H]3CC[C@H](C)CC3)c12)C1CCC1 (stereo partly drawn) [Example 11.99, 3-{8-[3-(4-chlorophenyl)morpholin-4-yl]-6-{[(1R)-1-cyclobutylethyl]amino}-7-[(trans-4-methylcyclohexyl)methyl]-7H-purin-2-yl}-1,2,4-oxadiazol-5(4H)-one] | 3.43
C[C@@H](Nc1nc(-c2noc(=O)[nH]2)nc2nc(N3CCOCC3c3ccccc3Cl)n(C[C@H]3CC[C@H](C)CC3)c12)C1CCC1 (stereo partly drawn) [Example 11.100, 3-{8-[3-(2-chlorophenyl)morpholin-4-yl]-6-{[(1R)-1-cyclobutylethyl]amino}-7-[(trans-4-methylcyclohexyl)methyl]-7H-purin-2-yl}-1,2,4-oxadiazol-5(4H)-one] | 0.936
C[C@@H](Nc1nc(-c2noc(=O)[nH]2)nc2nc(N3CCOC[C@H]3Cc3ccccc3)n(C[C@H]3CC[C@H](C)CC3)c12)C1CCC1 [Example 11.101, 3-{8-[(3R)-3-benzylmorpholin-4-yl]-6-{[(1R)-1-cyclobutylethyl]amino}-7-[(trans-4-methylcyclohexyl)methyl]-7H-purin-2-yl}-1,2,4-oxadiazol-5(4H)-one] | 16.2
COC1(C)CN(c2nc3nc(-c4noc(=O)[nH]4)nc(N[C@H](C)C4CCC4)c3n2C[C@H]2CC[C@H](C)CC2)C1 [Example 11.102, 3-(6-{[(1R)-1-cyclobutylethyl]amino}-8-(3-methoxy-3-methylazetidin-1-yl)-7-[(trans-4-methylcyclohexyl)methyl]-7H-purin-2-yl)-1,2,4-oxadiazol-5(2H)-one] | 20.8
C[C@@H](Nc1nc(-c2noc(=O)[nH]2)nc2nc(N3CC(C)(O)C3)n(C[C@H]3CC[C@H](C)CC3)c12)C1CCC1 [Example 11.103, 3-(6-{[(1R)-1-cyclobutylethyl]amino}-8-(3-hydroxy-3-methylazetidin-1-yl)-7-[(trans-4-methylcyclohexyl)methyl]-7H-purin-2-yl)-1,2,4-oxadiazol-5(2H)-one] | 36.2
C[C@@H](Nc1nc(-c2noc(=O)[nH]2)nc2nc(N3CCOCC(F)(F)C3)n(C[C@H]3CC[C@H](C)CC3)c12)C1CCC1 [Example 11.104, 3-(6-{[(1R)-1-cyclobutylethyl]amino}-8-(6,6-difluoro-1,4-oxazepan-4-yl)-7-[(trans-4-methylcyclohexyl)methyl]-7H-purin-2-yl)-1,2,4-oxadiazol-5(2H)-one] | 9.24
C[C@@H](Nc1nc(-c2noc(=O)[nH]2)nc2nc(N3CCCOCC3)n(C[C@H]3CC[C@H](C)CC3)c12)C1CCC1 [Example 11.105, 3-[6-{[(1R)-1-cyclobutylethyl]amino}-7-[(trans-4-methylcyclohexyl)methyl]-8-(1,4-oxazepan-4-yl)-7H-purin-2-yl]-1,2,4-oxadiazol-5(2H)-one] | 42.6
C[C@H](Nc1nc2nc(-c3noc(=O)[nH]3)nc(N[C@H](C)C3CCC3)c2n1C[C@H]1CC[C@H](C)CC1)c1cccc(F)c1 [Example 11.106, 3-(6-{[(1R)-1-cyclobutylethyl]amino}-8-{[(1S)-1-(3-fluorophenyl)ethyl]amino}-7-[(trans-4-methylcyclohexyl)methyl]-7H-purin-2-yl)-1,2,4-oxadiazol-5(2H)-one] | 3.22

From patent EP2951180B1, “2,6,7,8 SUBSTITUTED PURINES AS HDM2 INHIBITORS” (Merck Sharp & Dohme Corp., priority 2013, dated 2014)
